ChEMBL document CHEMBL4219072, “Enhancing the anti-biofilm activity of 5-aryl-2-aminoimidazoles through nature inspired dimerisation” (Bioorg Med Chem, 2018)
pIC50: −log10 of the molar value.

Assays:
[1] = test system: Salmonella typhimurium; test: Antibiofilm activity against Salmonella typhimurium ATCC 14028 after 24 hrs by crystal violet staining based assay; format: functional, organism-based, Salmonella enterica subsp. enterica serovar Typhimurium; details: Salmonella enterica, ATCC 14028, 24 h
[2] = test system: Pseudomonas aeruginosa; test: Antibiofilm activity against Pseudomonas aeruginosa PA14 after 24 hrs by crystal violet staining based assay; format: functional, organism-based; details: PA14, 24 h
[3] = test system: Escherichia coli; test: Antibiofilm activity against Escherichia coli TG1 after 24 hrs by crystal violet staining based assay; format: functional, organism-based; details: TG1, 24 h
[4] = test system: Staphylococcus aureus; test: Antibiofilm activity against Staphylococcus aureus SH1000 after 48 hrs by crystal violet staining based assay; format: functional, organism-based; details: SH1000, 48 h
[5] = test system: Salmonella typhimurium; test: Inhibition of planktonic growth of Salmonella typhimurium ATCC 14028 after 24 hrs; format: organism-based, Salmonella enterica subsp. enterica serovar Typhimurium; details: Salmonella enterica, ATCC 14028, 24 h
[6] = test system: Escherichia coli; test: Inhibition of planktonic growth of Escherichia coli TG1 after 24 hrs; format: organism-based; details: TG1, 24 h
[7] = test system: Staphylococcus aureus; test: Inhibition of planktonic growth of Staphylococcus aureus SH1000 after 48 hrs; format: organism-based; details: SH1000, 48 h

Structure (SMILES) | pIC50 [1] | pIC50 [2] | pIC50 [3] | pIC50 [4] | pIC50 [5] | pIC50 [6] | pIC50 [7]
c1ccc(-c2cnc(NCCCCCNc3ncc(-c4ccccc4)[nH]3)[nH]2)cc1 | 5.34 | 5.92 | 5.28 | 3.74 | 4.22 | 4.70 | 3.96
Nc1ncc(-c2ccc(F)cc2)n1CCCCn1c(-c2ccc(F)cc2)cnc1N | 4.94 | 4.95 | 4.60 | 4.61 | 4.30 | 4.11 | 4.57
Nc1ncc(-c2ccc(F)cc2)n1CCCCCn1c(-c2ccc(F)cc2)cnc1N | 5.32 | 4.92 | 5.12 | 4.22 | 4.07 | 5.43 | 4.22
Nc1ncc(-c2ccccc2)n1CCCCn1c(-c2ccccc2)cnc1N | 4.87 | 4.63 | 4.56 | 3.56 | 4.23 | 4.30 | 3.59
Nc1ncc(-c2ccc(Br)cc2)n1CCCCCCCn1c(-c2ccc(Br)cc2)cnc1N | 5.77 | 5.96 | 5.64 | 5.26 | < 3.40 | < 3.40 | 5.10
Nc1ncc(-c2ccc(F)cc2)n1CCCCCCCn1c(-c2ccc(F)cc2)cnc1N | 5.54 | 5.15 | 5.14 | 4.63 | 4.30 | < 4.00 | 4.47
Nc1ncc(-c2ccccc2)n1CCCCCCn1c(-c2ccccc2)cnc1N | 5.52 | 5.40 | 5.54 | 4.29 | 4.00 | < 3.10 | 4.27
Nc1ncc(-c2ccc(Br)cc2)n1CCCCCn1c(-c2ccc(Br)cc2)cnc1N | 5.40 | 5.21 | 5.20 | 5.13 | 4.44 | 5.17 | 5.06
Nc1ncc(-c2ccc(Cl)cc2)n1CCCCCn1c(-c2ccc(Cl)cc2)cnc1N | 5.29 | 5.18 | 4.92 | 4.87 | 4.72 | 4.87 | 4.61
Fc1ccc(-c2cnc(NCCCCCNc3ncc(-c4ccc(F)cc4)[nH]3)[nH]2)cc1 | 5.12 | 5.77 | 5.15 | 3.82 | 4.07 | 4.78 | 3.98
Nc1ncc(-c2ccccc2)n1CCCCCCCCn1c(-c2ccccc2)cnc1N | 4.79 | 5.06 | 5.54 | 4.65 | < 3.40 | 5.21 | 4.82
Nc1ncc(-c2ccccc2)n1CCCn1c(-c2ccccc2)cnc1N | 4.82 | 4.60 | 4.58 | 6.40 | 3.83 | 4.20 | 3.24
Nc1ncc(-c2ccc(F)cc2)n1CCCn1c(-c2ccc(F)cc2)cnc1N | 5.13 | 4.94 | 5.12 | 3.77 | 3.99 | 4.97 | 3.91
Nc1ncc(-c2ccc(Cl)cc2)n1CCCCCCCCn1c(-c2ccc(Cl)cc2)cnc1N | 5.70 | 5.89 | 5.96 | 5.21 | 4.32 | 5.55 | 5.41
Clc1ccc(-c2cnc(NCCCCCCCNc3ncc(-c4ccc(Cl)cc4)[nH]3)[nH]2)cc1 | 4.64 | 3.92 | 4.46 | 3.82 | < 3.10 | 4.53 | 3.85
Nc1ncc(-c2ccccc2)n1CCCCCn1c(-c2ccccc2)cnc1N | 4.69 | 4.48 | 4.98 | 4.02 | 4.05 | < 3.10 | 4.07
Nc1ncc(-c2ccc(Br)cc2)n1CCCCCCCCn1c(-c2ccc(Br)cc2)cnc1N | 5.11 | 5.35 | 6.10 | 5.55 | < 3.40 | 5.52 | 5.70
Fc1ccc(-c2cnc(NCCCNc3ncc(-c4ccc(F)cc4)[nH]3)[nH]2)cc1 | 5.20 | 5.24 | 5.32 | 4.30 | 4.23 | 4.79 | 4.22
Nc1ncc(-c2ccccc2)n1CCCCCCCn1c(-c2ccccc2)cnc1N | 5.43 | 5.43 | 5.10 | 4.93 | < 3.40 | < 3.10 | 4.49
Nc1ncc(-c2ccc(Br)cc2)n1CCCCCCn1c(-c2ccc(Br)cc2)cnc1N | 5.08 | 5.24 | 5.09 | 4.95 | < 3.40 | < 3.40 | 4.96
Clc1ccc(-c2cnc(NCCCCCCCCNc3ncc(-c4ccc(Cl)cc4)[nH]3)[nH]2)cc1 | 5.08 | 4.50 | 4.37 | 3.52 | 4.32 | 4.36 | 3.92
